Test [1] has as its system Bolshoye Yarovoye Artemia cysts (ARC BY 1706). Put plainly: Post-diapause development of Bolshoye Yarovoye strain encysted Artemia embryos with NO donors. The class given is in vivo. The following applies: for hatching after 24 hours: 40 and 60 μM, overcome by 48 hr; for concentration at which NO donor was most effective on cyst development: Bolshoye Yarovoye cysts, FIG. 2A-F. How it is done:
Encysted embryos (cysts) from a parthenogenetic strain of Artemia obtained in winter 2005-2006 in Bolshoye Yarovoye (Altay Region: 52° 51′64″ N-78° 37′32″ E), Russia (Artemia Reference Center (ARC) code number BY 1706), were stored in the dark at 4° C. in dry sealed bags. For the experiment, the cysts were grown at 26-28° C. with constant illumination in 25 ml of sea water under varying experimental conditions as detailed below.
To quantify larval (nauplii) emergence and hatching (FIG. 1) which served as measures of cyst development, 6 samples of 250 μl from each 50 ml tube were mixed individually with 250 μl of sea water and 2 drops of Lugol's solution (Van Stappen, G, 1996) prior to counting nauplii (N) and umbrella (U) with the aid of a dissecting microscope. […] The extent of development was determined as the percent of developed cysts which was calculated as either the number of hatched larvae, or the number of hatched and emerged larvae, obtained from 100 cysts, the latter represented by the sum of hatched nauplii (larvae), emerged larvae and undeveloped cysts containing embryos.
(§1) The hatching percentage (H %) was calculated according to: […]
(§2) The hatching percentage plus (H^+%) was calculated according to: […]
The percent of developed cysts was calculated as described above.

Test [2] relates to Vinh Chau Artemia cysts (ARC VC 1742). The test is described as follows: Post-diapause development of Vinh Chau strain encysted Artemia embryos with NO donor. In kind it is in vivo. The procedure:
Dry and processed embryos (cysts) from a strain of Artemia obtained in 2009 in the Soc Trang Province in the Mekong Delta (09° 19′48″ N-105° 58′11″ E) (Artemia Reference Center (ARC) code number VC 1742), were stored in the dark at 4° C. in tin cans, that were not resealed after the first opening. For the experiment, the cysts were grown at 26-28° C. with constant illumination in 25 ml of sea water under varying experimental conditions as detailed below.
To quantify nauplii (larvae) emergence and hatching (FIG. 1) which served as measures of cyst development, 6 samples of 250 μl were taken from each 50 ml tube after 10, 12, 14, 16, 18, 20, 22 and 24 h post incubation. Subsequently the obtained samples were mixed individually with 250 μl of sea water and 2 drops of Lugol's solution (Van Stappen, G, 1996) prior to counting nauplii (N) and umbrella (U) with the aid of a stereomicroscope.
as §1, §2

Test [3] concerns Maloye Yarovoye Artemia cysts (ARC MY 1732). Put plainly: Post-diapause development of Maloye Yarovoye strain encysted Artemia embryos with NO donor. In kind it is in vivo. The procedure:
Encysted embryos (cysts) from a parthenogenetic strain of Artemia obtained in 2008 in Maloye Yarovoye (Altay Region: 53° 04′00″ N-79° 10′00″ E), Russia (Artemia Reference Center (ARC) code number MY 1732), were stored in the dark at 4° C. in dry sealed bags. For the experiment, the cysts were grown at 26-28° C. with constant illumination in 25 ml of sea water under varying experimental conditions as detailed below.
To quantify nauplii (larvae) emergence and hatching (FIG. 1) which served as measures of cyst development, 6 samples of 250 μl were taken from each 50 ml tube after 24 and 48 h. Subsequently the obtained samples were mixed individually with 250 μl of sea water and 2 drops of Lugol's solution (Van Stappen, G, 1996) prior to counting nauplii (N) and umbrella (U) with the aid of a stereomicroscope.
as §1, §2

Test [4] deals with eggs with diapaused embryos of Bombyx mori. Put plainly: Termination of embryonic diapause in eggs dipped in NO donor or HCl. In kind it is in vivo. Conditions: SpermineNONOate 1 mM 30 min dip; 20% HCl 5 min 48° C. The procedure:
All experiments were carried out on silkmoth strain Bombyx mori J106 (Lepidoptera: Bombycidae). Larvae were maintained on an artificial diet (Yakuruto Co.) under standard conditions of 25° C., 65% relevant humidity and 16 h light ([…] et al., 2003). Egg batches were collected from a continuous insect colony and used for the experiments. […] The latter treatment is the normally used procedure to break diapause in eggs with diapaused embryos for maintenance of the insect colony of B. mori ([…] et al., 2003). In a water-control, eggs with diapaused embryos were dipped in distilled water only, and in a blank-control, eggs with diapaused were not treated. […] The numbers of eggs with diapaused embryos per treatment (n) are given with the results.

Test [5] concerns diapaused pupae of Heliothis virescens. Conditions: 30 min dip. How it is done:
The larval stages of the tobacco budworm Heliothis virescens (Lepidoptera: Noctuidae) were reared on an artificial diet at standard conditions of 25° C. and long light conditions with 14 h light (Smagghe G et al., 1994). To produce nondiapause pupae, the larvae were kept at these conditions throughout development, whereas for pupal diapause induction, third instar larvae were transferred to 18° C. and short light conditions of 8 h light. The pupal stemma were examined to check the diapause status as described (Philips J R et al., 1966).
The treatment was done in capped plastic Falcon tubes of 10 ml. Controls were dipped in distilled water. After treatment, pupae were put in 9-cm Petri dishes, lined with a filter paper and kept at 25° C. and 14 h light, and development of adults was scored at daily intervals. Per treatment, 20 pupae were tested. Means±SD were compared to controls with a Student's t-test.

Test [6] relates to diapaused adults of Leptinotarsa decemlineata. Put plainly: Termination of adult diapause by NO gas. In kind it is in vivo. How it is done: All experiments were carried out on the Colorado potato beetle (potato beetle), Leptinotarsa decemlineata (Say) (Coleoptera: Chrysomelidae). Diapaused adult beetles were obtained by rearing larvae and pupae at 8 h light, 16 h dark, 25±2° C. and 70% relative humidity (Yi, et al., 2000). All life stages were fed potato (Solanum tuberosum L. ‘Bintje’) plants, that were refreshed daily. 15 days after adult emergence, the diapausing adults were placed in individual aluminum foil, 2.5-cm diameter ‘beakers’, containing fresh soil (Universal potting soil, Type 1, M. Snebbout n.v., Kaprijke, Belgium), and were stored at 4° C. in darkness.
Under red light, beetles were collected and put in Pyrex glass bottles of 100 mL, containing a layer of fresh soil. These bottles were wrapped in a double layer of aluminum foil to ensure complete darkness and sealed gastight by means of a rubber stop and a screw cap. The air was then removed by inserting a needle (in the rubber stop) connected to a vacuum pump. Using 50 ppmv NO gas (with N2 as carrier gas, purchased from Air Liquide), dilution series were prepared (with air as dilutor), and the desired final NO concentrations were injected in each bottle. A blank control, received ambient air only. Verification of the NO concentrations was done by sampling from a parallel bottle that received the same gas mixture as the treatment bottle. NO content was determined with a chemiluminescence detector (CLD 77 Amsp, Eco Physics). The treatments were all done at 4° C. in the dark and 30 minutes after insertion of the gas mixtures, the rubber stops were removed.
After the treatments, the beetles were collected in plastic containers (dimensions: 10×21×5 cm), containing fresh soil and potato leaves and kept at 25±3° C., 65% relative humidity and 8 h light (Exp. 1 and 2). In the last experiment (Exp 3), beetles were left at 4° C. in the dark for 6 hours before transfer to a 12° C. incubator, in the dark. The beetles that emerged were collected every day and the beetles' emergence per treatment (% of total) are given with the results.

In test [7] the test system is eggs with diapaused embryos of Bombyx mori. The test is described as follows: Termination of embryonic diapause in eggs by NO gas. The class given is in vivo. Conditions: 5 days after treatment. The procedure: All experiments were carried out on silkmoth strain Bombyx mori J106 (Lepidoptera: Bombycidae). Larvae were maintained on an artificial diet (Yakuruto co.) under standard conditions of 25° C., 65% relative humidity and 16 h light (Tazima, Y., 1978; Swevers et al., 2003). Egg batches were collected from a continuous insect colony and used for the experiments.
In a first series, a batch of 70 eggs with diapaused embryos of B. mori were submerged for 5 minutes in 20% HCl (in distilled water) at 48° C., and then the eggs were washed with distilled water and dried to the air. […] The latter treatment is the normally used procedure to break diapause in eggs with diapaused embryos for maintenance of the insect colony of B. mori (Tazima, Y., 1978; Swevers et al., 2003). In a water-control, a batch of 70 eggs with diapaused embryos was submerged in distilled water for 5 minutes at 45° C., and in a blank-control, the same procedure was followed, but without addition of water.
In parallel, 4 batches of 70 eggs each, were put in Pyrex glass bottles of 100 mL, which were sealed gastight by means of a rubber stop and a screw cap. Then the air was removed from these bottles by inserting a needle (in the rubber stop) connected to a vacuum pump. Using 50 ppmv (Parts Per Million by Volume) NO gas (with N2 as carrier gas, purchased from Air Liquide) dilution series were prepared (with air as dilutor) to obtain final NO concentrations of 20, 200, 2000 and 20000 ppbv, in these bottles. Verification of the NO concentrations was done by sampling from a parallel bottle that received the same gas mixture as the treatment bottle and NO content was determined by using a chemiluminescence detector (CLD 77 Amsp, Eco Physics). 30 minutes after insertion of the gas mixtures, the rubber stops were removed. These treatments were all performed at room temperature.
Development of the neonate larvae (=hatching of first instar larvae from eggs) was scored at daily intervals. The numbers of eggs with diapaused embryos per treatment (n) are given with the results.

As for `CCCN(CCCN)N(O)N=O` [Papa NONOate, 3-(2-hydroxy-2-nitroso-1-propylhydrazino)-1-propanamine], in test [1], the “hatching after 24 hours” value was “inhibited hatching almost completely” and the “concentration at which NO donor was most effective on cyst development” value was 0.63 µM. Besides, the “hatching percentage (H %) versus untreated control” value in test [2] (0.5 μM, 16 and 18 h post-treatment) was “significantly increased”. Besides, the “hatching percentage (H %) versus non-treated controls” value in test [2] (1 and 4 μM, 16 hours and more) is reported as “comparable to the non-treated controls”. Further, in test [2] (Vinh Chau cysts), the optimal dose turned out to be 0.5 µM. Moreover, in test [2] (all treatments (0.5, 1, 4 μM) at 12, 18 and 20 hours), the “hatching percentage plus (H+%) versus non-treated controls” value is “significantly increase”. Moreover, the “increase in number of nauplii compared to the control” value in test [3] (4 μM, 48 h) is given as about 5 fold. The “hatching percentage (H %)” value in test [3] (4 μM, 48 h, control around 10%) stood at 47%. Also, the “optimal dose for inducing hatching” value in test [3] (Maloye Yarovoye diapausing cysts) is 4 µM.
For the molecule “N-[4-[1-(3-aminopropyl)-2-hydroxy-2-nitrosohydrazinobutyl]-1,3-propane diamine [Spermine NONOate]”, in test [1], the “hatching after 24 hours” value is reported as “less dramatic, but obvious” and the “concentration at which NO donor was most effective on cyst development” value stood at 4.0 µM. For the same molecule, in test [4], the “Number of developed neonates at day 6” value stood at 28, the “Number of developed neonates at day 7” value was 22, the “Number of developed neonates at day 8” value was 10 and the “Number of developed neonates at day 14” value is 0. In addition, in test [4], the “Number of undeveloped eggs at day 14” value was determined as 10, the “eggs developed into neonate larvae at 6-8 days after treatment (total)” value is 86% and the “percentage of developed neonates at day 14” value is given as “(0%)”. Besides, in test [5] (1000 μM, control 9.17±0.75 d, p=0.01), the “time to develop into the adult stage” value was 7.60 ± 0.89 days. In addition, the “time to adult stage versus controls” value in test [5] (10 and 100 μM) is given as “similar”.
nitric oxide [NO gas]: the “percentage of emerging adult beetles” value turned out to be 42.9% in test [6] (0.300 ppmv, after 4 days, in diapause for 27 days, blank control 14.3%); 20% in test [6] (2.6 ppmv, 3 days after treatment, in diapause for 10 days); 40% in test [6] (2.6 ppmv, day 6, in diapause for 10 days); 20% in test [6] (6.1 ppmv, 3 days after treatment, in diapause for 10 days); 20% in test [6] (6.1 ppmv, day 6, in diapause for 10 days); 20% in test [6] (67.4 ppmv, after 4 days, in diapause for 10 days). For the same molecule, in test [7] (0.02-20 ppmv NO, controls 0%), the eggs emerged is 27.1-37.1%. The “Percentage of developing eggs” value in test [7] (0.02 ppmv NO) is recorded as 37.1%; in test [7] (0.20 ppmv NO) it was 35.7%; in test [7] (2.00 ppmv NO), 31.4%; in test [7] (20.0 ppmv NO) it was 27.1%.

The values are drawn from US20120064180A1, “USE OF NO AND NO DONORS FOR TERMINATING DORMANCY IN INVERTEBRATES” (UNIVERSITEIT GENT, priority 2009, published 2012).
